Assay results from patent publication US20070099877A1, “N-aryl-thienopyrimidin-4-amines and analogs as activators of caspases and inducers of apoptosis and the use thereof” (Cytovia, Inc., priority 2005, published 2007).
Counter-ions that a name gives are not always drawn.

What was measured:
Type in all cases: cell-based
[1] = system: human lung cancer cell line H1299; test: Caspase cascade activation in H1299 cells; conditions: NCI-H1299, 24 h, read-out: Caspase activation Potency EC50 H1299 (24 h)
Method in brief: (§1)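 Cells were exposed to compound at 0.016 to 10 μM final for 24 h or 48 h at 37 °C. They were then lysed with 14 μM N-(Ac-DEVD)-N′-ethoxycarbonyl-R110 in lysolecithin/DTT/PIPES buffer pH 7.2 for 3 h at room temperature (ex 485/em 530 nm). EC50 came from a sigmoidal fit of net RFU relative to untreated control.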

[2] = system: multi-drug resistant (MDR) murine leukemia cell line P388ADR; test: Inhibition of cell proliferation (GI50) in P388/ADR cells; conditions: Mus musculus, Table IV, read-out: GI50 in Multi-Cancer Cells P388/ADR
Procedure: (§2) Human breast cancer cell lines T-47D, MX-1 and MDAMB435, human colon cancer cell line HT29, and human lung cancer cell line H1299 were grown and harvested as in Example 75. An aliquot of […] of cells (4.4×10^4 cells/mL) was added to a well of a 96-well microtiter plate containing 5 μL of a 10% DMSO in RPMI-1640 media solution containing 10 nM to 100 μM of N-(2,5-dimethoxyphenyl)-2-methylthieno[3,2-d]pyrimidin-4-amine (1 nM to 10 μM final). An aliquot of 45 μL of cells was added to a well of a 96-well microtiter plate containing 5 μL of a 10% DMSO in RPMI-1640 media solution without compound as the control sample for maximal cell proliferation (Lmax). The samples were mixed by agitation and then incubated at 37° C. for 48 h in a 5% CO2-95% humidity incubator. After incubation, the samples were removed from the incubator and 25 μL of CellTiter-Glo™ reagent (Promega) was added. The samples were mixed by agitation and incubated at room temperature for 10-15 min. Plates were then read using a luminescent plate reader (Model SPECTRAfluor Plus, Tecan) to give Ltest values.
(§3) Baseline for GI50 (dose for 50% inhibition of cell proliferation) of initial cell numbers was determined by adding an aliquot of 45 μL of cells or 45 μL of media, respectively, to wells of a 96-well microtiter plate containing 5 μL of a 10% DMSO in RPMI-1640 media solution. The samples were mixed by agitation and then incubated at 37° C. for 0.5 h in a 5% CO2-95% humidity incubator. After incubation, the samples were removed from the incubator and 25 μL of CellTiter-Glo™ reagent (Promega) was added. The samples were mixed by agitation and incubated at 37° C. for 10-15 min at room temperature in a 5% CO2-95% humidity incubator. Fluorescence was read as above, (LStart) defining luminescence for initial cell number used as baseline in GI50 determinations.
(§4) GI50 (dose for 50% inhibition of cell proliferation) is the concentration where [(LTest−Lstart)/(LMax−Lstart)]=0.5.
(§5) Several compounds were tested in multi cancer cell lines, including human breast cancer cell lines T-47D, MX-1, SKBR3 and MDAMB435, human hepatocellular carcinoma cell line SNU398, human colon carcinoma cell line HCT116, human sarcoma cell line MES-SA and multi-drug resistant (MDR) human sarcoma cell line MES-SA/ADR, murine leukemia cell line P388 and multi-drug resistant (MDR) murine leukemia cell line P388ADR, and the data are summarized in Table IV.

[3] = system: human colon cancer cell line HT29; test: Inhibition of cell proliferation (GI50) in HT29 cells; conditions: HT-29, Table III, 48 h
Procedure: as §2, §3, §4

[4] = system: human breast cancer cell line SKBR3; test: Inhibition of cell proliferation (GI50) in SKBR3 cells; conditions: SK-BR-3, Table IV, read-out: GI50 in Multi-Cancer Cells SKBR3
Procedure: as §2, §3, §4, §5

[5] = system: murine leukemia cell line P388; test: Inhibition of cell proliferation (GI50) in P388 cells; conditions: Mus musculus, Table IV, read-out: GI50 in Multi-Cancer Cells P388
Procedure: as §2, §3, §4, §5

[6] = system: human lung cancer cell line H1299; test: Inhibition of cell proliferation (GI50) in H1299 cells; conditions: NCI-H1299, Table III, 48 h
Procedure: as §2, §3, §4

[7] = system: human sarcoma cell line MES-SA; test: Inhibition of cell proliferation (GI50) in MES-SA cells; conditions: Table IV, read-out: GI50 in Multi-Cancer Cells MES-SA
Procedure: as §2, §3, §4, §5

[8] = system: human colon carcinoma cell line HCT116; test: Caspase cascade activation in HCT116 cells; conditions: Homo sapiens, HCT-116, 48 h, read-out: Caspase activation Potency EC50 HCT116 (48 h)
Method in brief: as §1

[9] = system: human B cell lymphoblastoid cell line Ramos; test: Caspase cascade activation in Ramos cells; conditions: 48 h, read-out: Caspase Activation Potency EC50 Ramos
[10] = system: human Burkitt's lymphoma cell line Namalwa; test: Caspase cascade activation in Namalwa cells; conditions: Burkitts lymphoma cell, 48 h, read-out: Caspase Activation Potency EC50 Namalwa

Row | EC50 [1] | GI50 [2] | GI50 [3] | GI50 [4] | GI50 [5] | GI50 [6] | GI50 [7] | EC50 [8] | EC50 [9] | EC50 [10] | Compound
1 | 2.91 µM | 2.6 µM | 3.63 µM | 0.5 µM | 2.06 µM | 1.04 µM | 5.19 µM | 5 µM | – | – | COc1ccc(OC)c(Nc2ncnc3ccsc23)c1 [Example 2, N-(2,5-Dimethoxyphenyl)thieno[3,2-d]pyrimidin-4-amine]
2 | 0.303 µM | 0.296 µM | – | 0.06 µM | 0.54 µM | – | 0.364 µM | 0.279 µM | 0.582 µM | 0.356 µM | COc1cc(Nc2ncnc3ccsc23)cc(OC)c1 [Example 12, N-(3,5-Dimethoxyphenyl)thieno[3,2-d]pyrimidin-4-amine hydrochloride]
